Test results as given in PMC11045757, “Group 3 medulloblastoma transcriptional networks collapse under domain specific EP300/CBP inhibition” (Nature Communications, 2024).

Test system: 460 barcoded cancer cell lines
Test: PRISM pooled barcoded cancer cell line growth screen, 10-point dose-response, 5 days, AUC
Assay type: cell-based
Parameters: scale not given here
Text: Several small molecule inhibitors of distinct protein domains of EP300/CBP are available, though the majority target the histone acetyltransferase domain (HAT) or bromodomain (BRD)[5],[10],[21],[22]. […] We used these tools to investigate the relative contribution of the EP300/CBP BRD or HAT domain to tumor cell growth (Fig. 1a). To do so, we performed 10-point, dose-response growth assays using mixed pools of 460 barcoded cancer cell lines, over five days of treatment in vitro[33],[34]. Growth was measured using an area-under-the-curve (AUC) approach (Supplementary Table 1, Supplementary Fig. 1a). […] Given potential differences in compound penetration and solubility, and to compare the relative cell line and tumor-specific effects of these two compounds in assays performed non-simultaneously, we performed a median normalization of each dataset (Supplementary Table 2).

Question: For `CNC(=O)Nc1ccc2c(c1)CCC21OC(=O)N(CC(=O)N(Cc2ccc(F)cc2)C(C)C(F)(F)F)C1=O` (stereo not shown) [Compound A485], which AUC (22RV1, Prostate Cancer) is on record?
Answer: 0.5834

Question: What about the AUC (42MGBA, Glioma) of the same compound?
Answer: 0.8468

Question: And the AUC (143B, Osteosarcoma)?
Answer: 1

Question: What about the AUC (639V, Bladder Cancer) of the same compound?
Answer: 0.8274

Question: And the AUC (647V, Bladder Cancer)?
Answer: 0.6672

Question: What about the AUC (697, B-cell Leukemia) of the same compound?
Answer: 0.5617

Question: And the AUC (769P, Kidney Cancer)?
Answer: 0.6332

Question: What about the AUC (5637, Bladder Cancer) of the same compound?
Answer: 0.8843

Question: And the AUC (8305C, Thyroid Cancer)?
Answer: 0.7544

Question: What about the AUC (A101D, Melanoma) of the same compound?
Answer: 0.9258

Question: What about the AUC (A204, Rhabdoid) of the same compound?
Answer: 0.6513

Question: And the AUC (A253, Head and Neck Cancer)?
Answer: 0.8228

Question: What about the AUC (A375, Melanoma) of the same compound?
Answer: 0.749

Question: What about the AUC (A427, Lung Cancer) of the same compound?
Answer: 0.6968

Question: What about the AUC (A673, Ewing Sarcoma) of the same compound?
Answer: 1

Question: What about the AUC (A1207, Glioblastoma) of the same compound?
Answer: 0.7712

Question: What about the AUC (ACHN, Kidney Cancer) of the same compound?
Answer: 0.5417

Question: What about the AUC (AGS, Gastric Cancer) of the same compound?
Answer: 0.7849

Question: And the AUC (AM38, Glioblastoma)?
Answer: 1

Question: What about the AUC (AN3CA, Endometrial/Uterine Cancer) of the same compound?
Answer: 0.8692

Question: And the AUC (AU565, Breast Cancer)?
Answer: 0.7944

Question: And the AUC (BDCM, AML)?
Answer: 0.9026

Question: And the AUC (BEN, Lung Cancer)?
Answer: 0.8869

Question: And the AUC (BFTC905, Bladder Cancer)?
Answer: 0.6715

Question: And the AUC (BHT101, Thyroid Cancer)?
Answer: 0.6133

Question: And the AUC (BICR16, Head and Neck Cancer)?
Answer: 0.6804

Question: And the AUC (BICR18, Head and Neck Cancer)?
Answer: 1

Question: What about the AUC (BICR22, Head and Neck Cancer) of the same compound?
Answer: 0.7556

Question: What about the AUC (BICR31, Head and Neck Cancer) of the same compound?
Answer: 0.7077

Question: What about the AUC (BICR56, Head and Neck Cancer) of the same compound?
Answer: 0.6769

Question: And the AUC (BT16, Rhabdoid)?
Answer: 1

Question: What about the AUC (BT474, Breast Cancer) of the same compound?
Answer: 0.9498

Question: What about the AUC (C32, Melanoma) of the same compound?
Answer: 0.9339

Question: And the AUC (C8166, Lymphoma)?
Answer: 0.6916

Question: And the AUC (CADOES1, Ewing Sarcoma)?
Answer: 0.6865

Question: And the AUC (CAKI1, Kidney Cancer)?
Answer: 0.6849

Question: And the AUC (CAL27, Head and Neck Cancer)?
Answer: 0.7545

Question: And the AUC (CAL54, Kidney Cancer)?
Answer: 0.4813

Question: What about the AUC (CAL62, Thyroid Cancer) of the same compound?
Answer: 0.8629

Question: What about the AUC (CAL78, Chondrosarcoma) of the same compound?
Answer: 0.8774

Question: What about the AUC (CAL120, Breast Cancer) of the same compound?
Answer: 0.8951

Question: And the AUC (CAOV3, Ovarian Cancer)?
Answer: 0.8124

Question: And the AUC (CBAGPN, Ewing Sarcoma)?
Answer: 0.8343

Question: And the AUC (CCK81, Colon/Colorectal Cancer)?
Answer: 0.7195

Question: What about the AUC (CHAGOK1, Lung Cancer) of the same compound?
Answer: 0.9372

Question: And the AUC (CHL1, Melanoma)?
Answer: 0.6205

Question: What about the AUC (CHLA06ATRT, Rhabdoid) of the same compound?
Answer: 1

Question: And the AUC (CHLA10, Ewing Sarcoma)?
Answer: 0.7781

Question: What about the AUC (CHLA15, Neuroblastoma) of the same compound?
Answer: 0.7188

Question: And the AUC (CHLA57, Ewing Sarcoma)?
Answer: 0.9584

Question: And the AUC (CHP212, Neuroblastoma)?
Answer: 0.8072

Question: And the AUC (CI1, B-cell Lymphoma)?
Answer: 0.7779

Question: What about the AUC (CJM, Melanoma) of the same compound?
Answer: 0.6266

Question: What about the AUC (CL11, Colon/Colorectal Cancer) of the same compound?
Answer: 0.6639

Question: And the AUC (CL34, Colon/Colorectal Cancer)?
Answer: 0.6654

Question: What about the AUC (CMLT1, CML) of the same compound?
Answer: 0.6607

Question: What about the AUC (COGAR359, Rhabdoid) of the same compound?
Answer: 1

Question: And the AUC (COGE352, Ewing Sarcoma)?
Answer: 1

Question: And the AUC (COLO320, Colon/Colorectal Cancer)?
Answer: 1

Question: And the AUC (COLO678, Colon/Colorectal Cancer)?
Answer: 0.7938

Question: And the AUC (COLO783, Melanoma)?
Answer: 0.9045

Question: What about the AUC (COLO792, Melanoma) of the same compound?
Answer: 0.7929

Question: What about the AUC (CORL23, Lung Cancer) of the same compound?
Answer: 0.831

Question: What about the AUC (CORL105, Lung Cancer) of the same compound?
Answer: 0.7616

Question: What about the AUC (COV318, Ovarian Cancer) of the same compound?
Answer: 0.7366

Question: And the AUC (COV434, Ovarian Cancer)?
Answer: 0.6392

Question: What about the AUC (COV644, Ovarian Cancer) of the same compound?
Answer: 0.7528

Question: And the AUC (CW2, Colon/Colorectal Cancer)?
Answer: 0.9324

Question: What about the AUC (CW9019, Rhabdomyosarcoma) of the same compound?
Answer: 0.6452

Question: And the AUC (DAOY, Medulloblastoma)?
Answer: 0.7773

Question: What about the AUC (DEL, Lymphoma) of the same compound?
Answer: 0.7007

Question: And the AUC (DETROIT562, Head and Neck Cancer)?
Answer: 0.6189

Question: What about the AUC (DKMG, Glioblastoma) of the same compound?
Answer: 0.8817

Question: And the AUC (DL, Rhabdoid)?
Answer: 0.6996

Question: And the AUC (DMS53, Lung Cancer)?
Answer: 0.6382

Question: What about the AUC (DMS273, Lung Cancer) of the same compound?
Answer: 0.7762

Question: What about the AUC (DND41, T-acute leukemia) of the same compound?
Answer: 0.7502

Question: What about the AUC (DU145, Prostate Cancer) of the same compound?
Answer: 0.8463

Question: What about the AUC (DU4475, Breast Cancer) of the same compound?
Answer: 0.4233

Question: And the AUC (DV90, Lung Cancer)?
Answer: 0.6128

Question: And the AUC (EB1, Lymphoma)?
Answer: 1

Question: What about the AUC (EBC1, Lung Cancer) of the same compound?
Answer: 0.8735

Question: What about the AUC (ECC10, Gastric Cancer) of the same compound?
Answer: 0.8444

Question: What about the AUC (ECGI10, Esophageal Cancer) of the same compound?
Answer: 0.8435

Question: And the AUC (EFE184, Endometrial/Uterine Cancer)?
Answer: 1

Question: And the AUC (EFM19, Breast Cancer)?
Answer: 0.5992

Question: What about the AUC (EFO21, Ovarian Cancer) of the same compound?
Answer: 0.9024

Question: And the AUC (EM2, CML)?
Answer: 0.902

Question: And the AUC (EN, Endometrial/Uterine Cancer)?
Answer: 0.9736

Question: And the AUC (ES2, Ovarian Cancer)?
Answer: 0.7477

Question: What about the AUC (ESS1, Endometrial/Uterine Cancer) of the same compound?
Answer: 0.9044

Question: What about the AUC (EW8, Ewing Sarcoma) of the same compound?
Answer: 0.7371

Question: And the AUC (EWS502, Ewing Sarcoma)?
Answer: 0.6563

Question: What about the AUC (FADU, Head and Neck Cancer) of the same compound?
Answer: 0.9573

Question: And the AUC (FTC133, Thyroid Cancer)?
Answer: 0.8254

Question: What about the AUC (FTC238, Thyroid Cancer) of the same compound?
Answer: 0.7484

Question: And the AUC (G292CLONEA141B1, Osteosarcoma)?
Answer: 1

Question: What about the AUC (G361, Melanoma) of the same compound?
Answer: 0.6803

Question: And the AUC (G401, Rhabdoid)?
Answer: 1

Question: And the AUC (G402, Rhabdoid)?
Answer: 0.9975

Question: What about the AUC (GB1, Glioblastoma) of the same compound?
Answer: 0.7582

Question: And the AUC (GCT, Pleomorphic Sarcoma)?
Answer: 0.8933

Question: And the AUC (GI1, Glioblastoma)?
Answer: 0.757

Question: What about the AUC (GOS3, Glioblastoma) of the same compound?
Answer: 0.9534

Question: What about the AUC (GP2D, Colon/Colorectal Cancer) of the same compound?
Answer: 0.7575

Question: What about the AUC (GRANTA519, Lymphoma) of the same compound?
Answer: 0.8493

Question: And the AUC (GSS, Gastric Cancer)?
Answer: 0.6579

Question: And the AUC (HARA, Lung Cancer)?
Answer: 0.7108

Question: What about the AUC (HCC33, Lung Cancer) of the same compound?
Answer: 0.908

Question: What about the AUC (HCC38, Breast Cancer) of the same compound?
Answer: 0.7435

Question: And the AUC (HCC44, Lung Cancer)?
Answer: 0.6558

Question: What about the AUC (HCC56, Colon/Colorectal Cancer) of the same compound?
Answer: 0.6212

Question: What about the AUC (HCC78, Lung Cancer) of the same compound?
Answer: 0.7931

Question: And the AUC (HCC95, Lung Cancer)?
Answer: 0.8823

Question: And the AUC (HCC515, Lung Cancer)?
Answer: 0.6901
